Test [1] concerns the target Human CB1R (Cannabanoid receptor 1) (Homo sapiens (Human), UniProt P21554). In words: CB-1 in vitro cAMP (HTRF) assay. The class given is cell-based. The following applies: HEK-293 cells stably transfected with human CB1R, 250 nM Forskolin, mean where tested more than once. The text has this:
(§1) CB1 and CB2 receptors are Gi-coupled GPCR. Activation of CB1 and CB2 receptors results in a decrease in cAMP production. An inverse agonist of the CB1 or CB2 receptor results in the opposite effect, an increase of cAMP production. The principle of this assay is based on HTRF® technology (Homogeneous Time-Resolved Fluorescence). The method is a competitive immunoassay between native cAMP produced by cells and the cAMP labeled with the fluorophore d2. The tracer binding is quantified by a Mab anti-cAMP labeled with Eu3+TBP-NHS Cryptate (supplied as part of the assay kit). The specific signal (i.e. energy transfer) is inversely proportional to the concentration of cAMP in the standard or sample.
(§2) Biological Example 1: CB-1 and CB-2 In Vitro Assay
(§3) Human CB1R (Cannabanoid receptor 1) was stably transfected in HEK-293 cells (DiscoveRx, cat: 93-0200C1). Human CB2R (Cannabanoid receptor 2) was stably transfected in HEK-293 cells (DiscoveRx, cat: 93-0201C1). Cell cultures were maintained in media: DMEM (Invitrogen Cat#12430-054) supplemented with 10% HI FBS (Invitrogen Cat#16140-071), 1% L-glutamine (Invitrogen Cat#25030-081), 0.2 mg/ml Hygromycin B (Invitrogen Cat#10687-010), 600 μg/mL G418 (Invitrogen Cat#10131-035), and 1×Penn/Strep (Invitrogen 15140-122). After cell expansion, aliquots were cryo-stored in media containing 5% DMSO (Pierce Cat#20684).
(§4) One day prior to experiments media was warmed to 37° C. and the cryo-stored cells were thawed in a 37° C. water bath. The cells were then added to media (10× volume) and the mixture was centrifugated at 1000 RPM for 5 min. The supernate was removed and the cells were re-suspended in media. A sample of the cell suspension was evaluated on a Cedex XS automated cell counter (Innovatis Systems) to determine viable cells/ml. Additional media was added to the cells to achieve a final cell density of 4E5 cells/mL. The cells were then plated into 384 well PDL white solid bottom plates (Greiner, Cat#781945) at 20 μL per well using a Multidrop (Thermo Scientific). Cells were removed from Row P (location of cAMP standards). Two columns of cells were plated into a clear bottom 384 well PDL coated plate (Greiner, Cat#781944) to view confluence the day of the assay. The cell plates were lidded and stored for 15 minutes in a hood, then transferred to an incubator (37° C., 5% CO2, 95% humidity) overnight.
(§5) DMSO was added to all wells of 384 well V bottom polystyrene plate (Greiner, Cat#781280) except to columns 1 and 13, rows O and P and wells M13-M23 and N13-N23. Test compounds (60 μL, 10 mM) were added to Column 1 and 13 (A1 through N1 and A13 through L13). Test compounds were serially diluted 1/3 by transferring and mixing 20 μl sample with 40 μL DMSO.
(§6) DMSO (40 μL) was added to wells of 384 well V bottom polystyrene plate: O2 through O11, M14 through M23, N14 through N23, and O14 through O23. AM630 (also known as [6-iodo-2-methyl-1-[2-(4-morpholinyl)ethyl]-1H-indol-3-yl](4-methoxyphenyl)-methanone, Cayman Chemical, Cat#10006974) (60 μL, 10 mM) was added to O1; and 1-(2,4-dichlorophenyl)-7-[(4-fluorophenyl)methylene]-4,5,6,7-tetrahydro-N-1-piperidinyl-1H-indazole-3-carboxamide (60 μL, 10 mM) was added to N13. The control was serially diluted 1/3 by transferring and mixing 20 μl sample with 40 μL DMSO. This process resulted 11 doses per control, 10 mM to […].
(§7) Cells plated the day prior to the assay in clear bottom plates were viewed on an inverse microscope to ensure confluency in the range of 60-75%. […]
On the technique in general: In TR-FRET formats the signal depends on donor and acceptor labels being close together.

For test [2], the target named is Human CB2R (Cannabanoid receptor 2) (Homo sapiens (Human), UniProt P34972). In words: CB-2 in vitro cAMP (HTRF) assay. The class given is cell-based. The settings on record: HEK-293 cells stably transfected with human CB2R, 250 nM Forskolin, mean where tested more than once.
Source text: as §1, §2, §3, §4, §5, §6, §7

For orientation: EC50 means the concentration that produces a half-maximal response. Read a high EC50 as a less potent agent.

Human CB1R (Cannabanoid receptor 1), sequence (P21554 whole entry): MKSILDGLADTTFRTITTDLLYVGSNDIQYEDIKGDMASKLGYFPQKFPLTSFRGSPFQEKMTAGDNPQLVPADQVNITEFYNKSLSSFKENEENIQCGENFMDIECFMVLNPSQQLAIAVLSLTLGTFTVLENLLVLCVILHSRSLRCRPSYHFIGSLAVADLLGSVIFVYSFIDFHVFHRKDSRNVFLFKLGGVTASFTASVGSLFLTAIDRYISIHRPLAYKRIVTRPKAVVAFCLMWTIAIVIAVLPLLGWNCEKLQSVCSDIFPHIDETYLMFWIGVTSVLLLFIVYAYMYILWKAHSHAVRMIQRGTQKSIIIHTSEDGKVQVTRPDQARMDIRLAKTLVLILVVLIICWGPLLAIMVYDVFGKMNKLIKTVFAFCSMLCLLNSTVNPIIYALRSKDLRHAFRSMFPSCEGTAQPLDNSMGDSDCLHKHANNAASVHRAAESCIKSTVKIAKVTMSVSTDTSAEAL
Human CB2R (Cannabanoid receptor 2), sequence (P34972 whole entry): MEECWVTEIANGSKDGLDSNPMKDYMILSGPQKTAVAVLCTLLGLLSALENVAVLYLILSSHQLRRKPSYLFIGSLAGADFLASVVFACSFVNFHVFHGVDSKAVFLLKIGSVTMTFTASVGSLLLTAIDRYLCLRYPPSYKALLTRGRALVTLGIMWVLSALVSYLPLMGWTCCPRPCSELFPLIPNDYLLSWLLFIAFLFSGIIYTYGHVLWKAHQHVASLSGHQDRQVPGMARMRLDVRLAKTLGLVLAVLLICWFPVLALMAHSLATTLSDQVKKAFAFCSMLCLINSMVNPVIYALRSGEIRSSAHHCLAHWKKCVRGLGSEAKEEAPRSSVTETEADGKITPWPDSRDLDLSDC

Regarding `O=C(O)c1ccc(N2CCC(Nc3cnnc4ccc(C(c5ccc(Cl)cc5)c5ccc(Cl)cc5)cc34)CC2)cc1` [Compound 17, 4-(4-(6-(bis(4-chlorophenyl)methyl)cinnolin-4-ylamino)piperidin-1-yl)benzoic acid], the concentration giving a half-maximal response (EC50) in test [1] came to 10.1 µM; in test [2], 8.1 µM.
Taken in the same sequence, the figures for `Clc1ccc(C(c2ccc(Cl)cc2)c2ccc3nncc(NCCc4ccccc4)c3c2)cc1` [Compound 25, 6-(bis(4-chlorophenyl)methyl)-N-phenethylcinnolin-4-amine] were 0.035 µM and 2.46 µM.
Taken in the same sequence, the figures for `O=S(=O)(N1CCC(Nc2cnnc3ccc(C(O)(c4ccc(Cl)cc4)c4ccc(Cl)cc4)cc23)CC1)C(F)(F)F` [Compound 1, bis(4-chlorophenyl)(4-((1-((trifluoromethyl)sulfonyl)piperidin-4-yl)amino)cinnolin-6-yl)methanol] were 0.455 µM and greater than 10 µM.
For the compound `O=C(O)c1ccc(CN2CCC(Nc3cnnc4ccc(C(c5ccc(Cl)cc5)c5ccc(Cl)cc5)cc34)CC2)s1` [Compound 15, 5-((4-(6-(bis(4-chlorophenyl)methyl)cinnolin-4-ylamino)piperidin-1-yl)methyl)thiophene-2-carboxylic acid], the results for the 50% effective concentration (EC50) in test [1] and in test [2] were 0.399 µM and 3.69 µM, respectively.
Taken in the same sequence, the figures for `O=C(O)c1cccc(CCNc2cnnc3ccc(C(c4ccc(Cl)cc4)c4ccc(Cl)cc4)cc23)c1` [Compound 38, 3-(2-(6-(bis(4-chlorophenyl)methyl)cinnolin-4-ylamino)ethyl)benzoic acid] were 4.5 µM and 3.98 µM.
Taken in the same sequence, the figures for `O=S(=O)(N1CCC(Nc2cnnc3ccc(C(c4ccc(Cl)cc4)c4nccs4)cc23)CC1)C(F)(F)F` (centres unmarked) [Compound 36, 6-((4-chlorophenyl)(thiazol-2-yl)methyl)-N-(1-(trifluoromethylsulfonyl)piperidin-4-yl)cinnolin-4-amine] were 0.028 µM and 0.665 µM.
Taken in the same sequence, the figures for `O=C(O)c1ccc(S(=O)(=O)N2CCC(Nc3cnnc4ccc(C(c5ccc(Cl)cc5)c5ccc(Cl)cc5)cc34)CC2)cc1` [Compound 10, 4-(4-(6-(bis(4-chlorophenyl)methyl)cinnolin-4-ylamino)piperidin-1-ylsulfonyl)benzoic acid] were 0.302 µM and 1.48 µM.
As for `O=C(O)c1cccc(CCN2CCC(Nc3cnnc4ccc(C(c5ccc(Cl)cc5)c5ccc(Cl)cc5)cc34)CC2)c1` [Compound 23, 3-[2-[4-([6-[bis(4-chlorophenyl)methyl]cinnolin-4-yl]amino)piperidin-1-yl]ethyl]benzoic acid], the EC50 in test [1] was 5.09 µM; in test [2], greater than 10 µM.
The corresponding values for `O=C(O)c1csc(S(=O)(=O)N2CCC(Nc3cnnc4ccc(C(c5ccc(Cl)cc5)c5ccc(Cl)cc5)cc34)CC2)c1` [Compound 32, 5-[4-([6-[bis(4-chlorophenyl)methyl]cinnolin-4-yl]amino)piperidine-1-sulfonyl]thiophene-3-carboxylic acid] are 0.04 µM and 1.98 µM.
Taken in the same sequence, the figures for `O=S(=O)(N1CCC(Nc2cnnc3ccc(C(c4ccc(Cl)cc4)c4ccc(Cl)cc4)cc23)CC1)C(F)(F)F` [Compound 5, 6-(bis(4-chlorophenyl)methyl)-N-(1-((trifluoromethyl)sulfonyl)piperidin-4-yl)cinnolin-4-amine] were 0.013 µM and 3.35 µM.
The corresponding values for `O=S(=O)(N1CCC(Nc2cnnc3ccc(C(c4ccc(Cl)cc4)c4ccc(Cl)cc4)cc23)C1)C(F)(F)F` (centres unmarked) [Compound 26, 6-(bis(4-chlorophenyl)methyl)-N-(1-(trifluoromethylsulfonyl)pyrrolidin-3-yl)cinnolin-4-amine] are 0.095 µM and 1.93 µM.
`FC(F)(F)c1cccc(CNc2cnnc3ccc(C(c4ccc(Cl)cc4)c4ccc(Cl)cc4)cc23)c1` [Compound 8, 6-(bis(4-chlorophenyl)methyl)-N-(3-(trifluoromethyl)benzyl)cinnolin-4-amine]: the EC50 in test [1] was 0.012 µM; in test [2], greater than 10 µM.
The corresponding values for `Clc1ccc(C(c2ccc(Cl)cc2)c2ccc3nncc(NC4CCN(CCc5ccccc5)CC4)c3c2)cc1` [Compound 30, 6-(bis(4-chlorophenyl)methyl)-N-(1-phenethylpiperidin-4-yl)cinnolin-4-amine] are 0.643 µM and greater than 10 µM.
`OC(c1ccc(Cl)cc1)(c1ccc(Cl)cc1)c1ccc2nncc(NCc3cccc(C(F)(F)F)c3)c2c1` [Compound 6, bis(4-chlorophenyl)(4-((3-(trifluoromethyl)benzyl)amino)cinnolin-6-yl)methanol]: the EC50 in test [1] is 0.254 µM; in test [2], greater than 10 µM.
Taken in the same sequence, the figures for `O=C(O)c1ccc(CN2CCC(Nc3cnnc4ccc(C(c5ccc(Cl)cc5)c5ccc(Cl)cc5)cc34)CC2)cc1` [Compound 13, 4-((4-(6-(bis(4-chlorophenyl)methyl)cinnolin-4-ylamino)piperidin-1-yl)methyl)benzoic acid] were 1.44 µM and greater than 10 µM.
The corresponding values for `Clc1ccc(C(c2ccc(Cl)cc2)c2ccc3nncc(N4CCN(Cc5ccccc5)CC4)c3c2)cc1` [Compound 22, 4-(4-benzylpiperazin-1-yl)-6-(bis(4-chlorophenyl)methyl)cinnoline] are 6.54 µM and greater than 10 µM.
Taken in the same sequence, the figures for `O=S(=O)(N1CCN(c2cnnc3ccc(C(c4ccc(Cl)cc4)c4ccc(Cl)cc4)cc23)CC1)C(F)(F)F` [Compound 24, 6-[bis(4-chlorophenyl)methyl]-4-[4-(trifluoromethane)sulfonylpiperazin-1-yl]cinnoline] were 0.261 µM and greater than 10 µM.
As for `O=C(O)c1cccc(CN2CCC(Nc3cnnc4ccc(C(c5ccc(Cl)cc5)c5ccc(Cl)cc5)cc34)CC2)c1` [Compound 12, 3-[[4-([6-[bis(4-chlorophenyl)methyl]cinnolin-4-yl]amino)piperidin-1-yl]methyl]benzoic acid], the concentration for a half-maximal effect (EC50) was found to be 0.302 µM in test [1] and 6.5 µM in test [2].
Taken in the same sequence, the figures for `COc1ccc(CNc2cnnc3ccc(C(c4ccc(Cl)cc4)c4ccc(Cl)cc4)cc23)cc1` [Compound 20, 6-(bis(4-chlorophenyl)methyl)-N-(4-methoxybenzyl)cinnolin-4-amine] were 0.196 µM and 3.58 µM.
Taken in the same sequence, the figures for `COc1ccc(C(c2ccc(Cl)cc2)c2ccc3nncc(NC4CCN(S(=O)(=O)C(F)(F)F)CC4)c3c2)cc1` (centres unmarked) [Compound 35, 6-((4-chlorophenyl)(4-methoxyphenyl)methyl)-N-(1-(trifluoromethylsulfonyl)piperidin-4-yl)cinnolin-4-amine] were 0.011 µM and 0.396 µM.
The corresponding values for `O=C(c1ccccc1)N1CCC(Nc2cnnc3ccc(C(c4ccc(Cl)cc4)c4ccc(Cl)cc4)cc23)CC1` [Compound 3, (4-((6-(bis(4-chlorophenyl)methyl)cinnolin-4-yl)amino)piperidin-1-yl)(phenyl)methanone] are 0.463 µM and greater than 10 µM.
Regarding `O=C(O)c1ccccc1CN1CCC(Nc2cnnc3ccc(C(c4ccc(Cl)cc4)c4ccc(Cl)cc4)cc23)CC1` [Compound 18, 2-((4-(6-(bis(4-chlorophenyl)methyl)cinnolin-4-ylamino)piperidin-1-yl)methyl)benzoic acid], the figures for the EC50 in test [1] and in test [2] were 9.5 µM and 9.9 µM, respectively.

The values are drawn from patent US9732061B2, “Cinnoline derivatives useful as CB-1 receptor inverse agonists” (Janssen Pharmaceutica NV, priority 2015, dated 2017).
